Tests used:
KRAS G12D [1] = molecular target: T1, KRAS G12D (Homo sapiens (Human), UniProt P01116, G12D); assay: KRAS G12D RAF Disruption Assay (HTRF); type: biochemical; conditions: recombinant GMPPNP-loaded KRAS G12D (5 nM), GST-RAF1 RBD (9 nM), HTRF signal
Protocol: Recombinant GMPPNP-loaded KRAS G12D (5 nM) was treated with compound at room temperature for 20 minutes in assay buffer (50 mM Tris pH 7.5, 100 mM NaCl, 1 mM MgCl2, 1 mM DTT, 100 ug/mL BSA).

KRAS G12D [2] = molecular target: T1, KRAS G12D; assay: KRAS G12D Nucleotide Exchange Assay (HTRF); type: biochemical; conditions: recombinant GDP-loaded KRAS G12D (20 nM), BIODIPY-labeled GDP (400 nM), recombinant SOS (10 nM), HTRF signal
Protocol: Recombinant GDP-loaded KRAS G12D (20 nM) was treated with compound at room temperature for 20 minutes in assay buffer (10 mM Hepes pH 7.4, 150 mM NaCl, 5 mM MgCl2, 0.0025% Igepal-CA630, 0.05% BSA, 1 mM DTT, 0.5 nM SA-Tb). BIODIPY-labeled GDP (400 nM) and recombinant SOS (10 nM) were added, and the reaction was incubated for 30 minutes.

T1 sequence (P01116-2 other isoform, or with tags, fused parts or gaps G12D): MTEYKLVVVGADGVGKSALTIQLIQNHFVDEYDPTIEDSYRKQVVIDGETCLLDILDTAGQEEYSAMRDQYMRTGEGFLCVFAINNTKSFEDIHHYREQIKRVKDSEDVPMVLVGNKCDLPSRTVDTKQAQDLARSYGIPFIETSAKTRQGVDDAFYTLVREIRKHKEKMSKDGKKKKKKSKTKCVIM

SMILES	KRASG12D RAF Disruption Assay (IC50, µM) (KRAS G12D [1])	KRASG12D Nucleotide Exchange Assay (IC50, µM) (KRAS G12D [2])
C#Cc1c(F)ccc2cc(O)cc(-c3ccc4c(N5CC[C@H]6CC[C@@H](C5)N6)nc(OCC5(CN(C)C)CC5)nc4c3F)c12 [Example 11-1, 4-{4-[(1S,6R)-3,9-diazabicyclo[4.2.1]nonan-3-yl]-2-({1-[(dimethylamino)methyl]cyclopropyl}methoxy)-8-fluoroquinazolin-7-yl}-5-ethynyl-6-fluoronaphthalen-2-ol]	2700 nM	0.06 µM
C#Cc1c(F)ccc2cc(O)cc(-c3ccc4c(N5CC[C@H]6CC[C@@H](C5)N6)nc(OC[C@]56CCC[C@H]5N(C)CCC6)nc4c3F)c12 [Example 9-4, 4-(2-{[(4aS,7aR)-1-methyl-octahydro-1H-cyclopenta[b]pyridin-4a-yl]methoxy}-4-[(1S,6R)-3,9-diazabicyclo[4.2.1]nonan-3-yl]-8-fluoroquinazolin-7-yl)-5-ethynyl-6-fluoronaphthalen-2-ol]	200 nM	0.02 µM
CCc1cccc2cc(O)cc(-c3c(Cl)cc4c(N5CC[C@H]6CC[C@@H](C5)N6)nc(OC[C@]56CCCN5C[C@@H](F)C6)nc4c3F)c12 (single isomer, unassigned) [Example 8-3]	17300 nM	0.07 µM

Further lines, results first:

KRASG12D RAF Disruption Assay (IC50, µM) (KRAS G12D [1])	KRASG12D Nucleotide Exchange Assay (IC50, µM) (KRAS G12D [2])	SMILES
41500 nM	0.11 µM	Cc1cc(N)nc(-c2c(Cl)cc3c(N4CC[C@H]5CC[C@@H](C4)N5)nc(OCC4(CN5CC[C@@H](F)C5)CC4)nc3c2F)c1C(F)(F)F [Example 10-4, 6-{6-chloro-4-[(1S,6R)-3,9-diazabicyclo[4.2.1]nonan-3-yl]-8-fluoro-2-[(1-{[(3R)-3-fluoropyrrolidin-1-yl]methyl}cyclopropyl)methoxy]quinazolin-7-yl}-4-methyl-5-(trifluoromethyl)pyridin-2-amine]
50 nM	<0.002 µM	Cc1cc(N)nc(-c2c(Cl)cc3c(N4CC[C@H]5CC[C@@H](C4)N5)nc(OC[C@]45CCC[C@H]4N(C)CCC5)nc3c2F)c1C(F)(F)F [Example 3, 6-(2-{[(4aS,7aR)-1-methyl-octahydro-1H-cyclopenta[b]pyridin-4a-yl]methoxy}-6-chloro-4-[(1S,6R)-3,9-diazabicyclo[4.2.1]nonan-3-yl]-8-fluoroquinazolin-7-yl)-4-methyl-5-(trifluoromethyl)pyridin-2-amine]
